Measurements taken from paper PMC7812675 (ACS Medicinal Chemistry Letters, 2020).
Read-outs that look alike come from different tables or passages of the source. Blank lines part the entries; values can stand above or below the compound they belong to. Square brackets hold non-standard residues; d marks the D form. Peptide text beside a SMILES is read from it. Hyp = O=C(O)[C@@H]1C[C@@H](O)CN1

Tests used:
MsCI4 (MsCI4WW/FF) [1] = molecular target: T1, MsCI4 (MsCI4WW/FF) (Magnetospirillum gryphiswaldense, UniProt A4TVL0, W36F/W59F); conditions: MANT-uracil reporter
[2] = molecular target: T2, human CRBN (hCRBN) thalidomide binding domain (hTBD) (Homo sapiens, UniProt Q96SW2); experiment: Competitive MST assay with BODIPY-uracil reporter and hTBD; conditions: for binding to hTBD in the MST assay (words; n.b., no binding): 10 µM hTBD/200 nM BODIPY-uracil
T2 construct: 319-425; GST (thrombin site) (N, cleaved yes); made in house; host or cells: E. coli Rosetta 2(DE3)pLysS

[3] = molecular target: T3, Magnetospirillum gryphiswaldense cereblon isoform 4 (MsCI4) (Magnetospirillum gryphiswaldense, UniProt A4TVL0); assay type: binding; conditions: competitive DMSO titration
T3 construct: made in house
T3 sequence (A4TVL0 1-124): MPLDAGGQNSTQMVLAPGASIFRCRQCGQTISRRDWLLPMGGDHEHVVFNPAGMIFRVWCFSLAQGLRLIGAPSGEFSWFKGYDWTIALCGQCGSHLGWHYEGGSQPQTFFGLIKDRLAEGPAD

[4] = molecular target: T4, VHL/EloB/EloC complex (VBC) (Homo sapiens, UniProt P40337); experiment: Competitive MST assay, unlabeled peptides against VHL and FAM reporter peptide; assay type: binding; conditions: ± confidence interval
T4 construct: VHL54-213 fused to an N-terminal TwinStrep-tag; TwinStrep-tag (TEV site) (N, cleaved yes); made in house; host or cells: E. coli BL21(DE3)

[5] = molecular target: T3, Magnetospirillum gryphiswaldense cereblon isoform 4 (MsCI4); assay type: binding; conditions: initial fluorescence measurement, 200 nM BODIPY-uracil
[6] = molecular target: T2, human CRBN (hCRBN) thalidomide binding domain (hTBD); experiment: Initial fluorescence (quenching) titration of hTBD against BODIPY-uracil; conditions: initial fluorescence measurement, 200 nM BODIPY-uracil
MsCI4 (MsCI4WW/FF) [7] = molecular target: T1, MsCI4 (MsCI4WW/FF); conditions: cited from earlier work
[8] = IC50, FAM-11mer competition, 570 nM VBC/20 nM FAM-11mer reporter
[9] = IC50, FAM-19mer competition, 80 nM VBC/20 nM FAM-19mer reporter

Compound: O=C1CN(/N=C/c2ccccc2[N+](=O)[O-])C(=O)N1 [2-NP-AHD, 1-(2-nitrobenzylideneamino)hydantoin]
binding to MsCI4 in the FRET assay (words) (MsCI4 (MsCI4WW/FF) [1]): absence of affinity

Compound: O=C1CN(/N=C/c2ccc([N+](=O)[O-])o2)C(=O)N1 [Nitrofurantoin, nitrofurantoin]
binding to hTBD in the MST assay (words; n.b., no binding) [2]: did not show any binding
binding to MsCI4 in the FRET assay (words) (MsCI4 (MsCI4WW/FF) [1]): do not show binding
binding to MsCI4 in the FRET assay (words) (MsCI4 (MsCI4WW/FF) [1]; listed as nitrofurantoin): did not show any binding

Compound: O=C1CN(/N=C/c2ccccc2)C(=O)N1 [1-Benzylidene-aminohydantoin, 1-benzylideneaminohydantoin]
binding to MsCI4 in the FRET assay (words) (MsCI4 (MsCI4WW/FF) [1]): absence of affinity

Compound: DMSO
Ki as corresponding concentration of DMSO, hTBD ([2]; competitive DMSO titration): 1.0 % (v/v)
Ki as corresponding concentration of DMSO, MsCI4 [3]: 0.08 % (v/v)

IC50 [4, 8]: 0.803 ± 0.45 µM
IC50 [4, 9]: 0.572 ± 0.26 µM
Compound: CC[C@H](C)[C@H](NC(=O)[C@H](Cc1ccc(O)cc1)NC(=O)[C@@H]1C[C@@H](O)CN1C(=O)[C@H](C)NC(=O)[C@H](CC(C)C)NC(=O)[C@H](C)NC(=O)[C@H](CCC(=O)O)NC(=O)[C@@H](N)CC(=O)O)C(=O)N1CCC[C@H]1C(=O)N[C@@H](CCSC)C(=O)N[C@@H](CC(=O)O)C(=O)N[C@@H](CC(=O)O)C(=O)N[C@@H](CC(=O)O)C(=O)N[C@@H](Cc1ccccc1)C(=O)N[C@@H](CCC(N)=O)C(=O)N[C@@H](CC(C)C)C(=O)N[C@@H](CCCNC(=N)N)C(=O)N[C@@H](CO)C(=O)N[C@@H](Cc1ccccc1)C(=O)O [19mer]

Kd [5]: 3.8 µM
Kd [6]: 11 µM
Compound: CC1=CC(C)=[N+]2C1=C(CCC(=O)NCCn1ccc(=O)[nH]c1=O)c1c(C)cc(C)n1[B-]2(F)F [BODIPY-uracil]

Compound: O=c1ccn([C@@H]2O[C@H](COP(=O)(O)O)[C@@H](O)[C@H]2O)c(=O)[nH]1 [UMP, uridine-5′-monophosphate]
binding to hTBD in the MST assay (words; n.b., no binding) [2]: abolished binding completely

Compound: O=c1ccn([C@@H]2O[C@H](CO)[C@@H](O)[C@H]2O)c(=O)[nH]1 [Uridine, uridine]
affinity to MsCI4 in the FRET assay (MsCI4 (MsCI4WW/FF) [7]): high affinity

IC50 [4, 8]: 1.8 ± 0.81 µM
IC50 [4, 9]: 1.42 ± 0.95 µM
Compound: CC[C@H](C)[C@H](NC(=O)[C@H](Cc1ccc(O)cc1)NC(=O)[C@@H]1C[C@@H](O)CN1C(=O)[C@H](C)NC(=O)[C@H](CC(C)C)NC(=O)[C@H](C)NC(=O)[C@H](CCC(=O)O)NC(=O)[C@@H](N)CC(=O)O)C(=O)N1CCC[C@H]1C(=O)N[C@@H](CCSC)C(=O)N[C@@H](CC(=O)O)C(=O)O [11mer] (H-DEALA[Hyp]YIPMD-OH)
